In patent publication US20070003481A1, “Method and composition to individualize Levodopa/Carbidopa therapy using a breath test” (priority 2005, published 2007):

Legend:
[1] = target: T1, dopamine decarboxylase (DDC) (Homo sapiens, UniProt P20711); assay: 13CO2 breath test after 13C-labeled LD, with CD pretreatment or simultaneous CD; assay type: in vivo
T1 construct: from tissue; host or cells: peripheral tissues of living human subjects (liver, kidney, gastrointestinal tract, capillary endothelium)
T1 sequence (P20711 1-480): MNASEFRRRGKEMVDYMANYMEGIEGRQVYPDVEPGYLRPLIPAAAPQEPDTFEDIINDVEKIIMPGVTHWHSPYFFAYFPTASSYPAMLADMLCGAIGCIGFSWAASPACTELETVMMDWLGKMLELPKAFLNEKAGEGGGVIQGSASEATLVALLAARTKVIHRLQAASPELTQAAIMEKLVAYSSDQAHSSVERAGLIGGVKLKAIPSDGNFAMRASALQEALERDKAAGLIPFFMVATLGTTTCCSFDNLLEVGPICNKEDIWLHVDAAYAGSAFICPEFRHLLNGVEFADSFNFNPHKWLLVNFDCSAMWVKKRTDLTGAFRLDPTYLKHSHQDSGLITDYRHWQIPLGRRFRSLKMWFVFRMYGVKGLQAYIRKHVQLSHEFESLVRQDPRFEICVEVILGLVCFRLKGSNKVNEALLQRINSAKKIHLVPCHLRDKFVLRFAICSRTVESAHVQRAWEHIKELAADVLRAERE
Experimental: ^13CO2 and ^12CO2 in exhaled breath samples is measured by IR spectrometry using the UBiT-IR300 (Meretek Diagnostics, Lafayette, CO; ^13CO2 urea breath analyzer instruction manual. Lafayette, CO: Meretek Diagnostics; 2002; A1-A2)^12 The amount of ^13CO2 present in breath samples is expressed as delta over baseline (DOB) that represents a change in the ^13CO2/^12CO2 ratio of breath samples collected before and after ^13C-labeled DDC enzyme substrate ingestion, e.g., ^13C-labeled LD. [formula]
The amount of ^13C-labeled DDC substrate absorbed and released into the breath as ^13CO2 is determined for each time point using the equation described by Amarri (Amarri et al., Clin Nutr. 14:149-54 (1995)).
The PDR is calculated using the formula: [formula] where ^13δ=[RS/RPDB)−1]×10^3 Rs=^13C:^12C in the sample RPDB=^13C:^12C in PDB (international standard PeeDeeBelemnite)=0.0112372) P is the atom % excess n is the number of labeled carbon positions δt, δ+1, δ0 are enrichments at times t, t+1 and predose respectively C is the CO2 production rate (C=300 [mmol/h]*BSA BSA=w^0.5378*h^0.3963*0.024265 (Body Surface Area) w: Weight (kg) h: Height (cm) Cmax is the highest value of DOB from the breath curve following ^13C-labeled DDC substrate. In one embodiment of the method, the ^13C-labeled DDC substrate is ^13C-labeled LD.
The present studies employed the ^13CO2 breath test method of the present invention to determine the optimal dose of CD required to optimally suppress peripheral metabolism of ^13C-labeled LD in individual subjects (i.e., Vlt 1 and Vlt 2). Briefly, a pre-breath test sample was collected in normal human subjects after overnight fasting (12 h) in a 1.3 L aluminum bag (Otsuka Pharmaceutical Co., Ltd., Tokyo, Japan). Briefly, normal human subjects ingested varying dosages (e.g., 25 mg-200 mg CD) 1 h prior to administration of 100 mg ^13C-labeled LD on three successive days. Breath samples were collected at specified intervals following administration of ^13C-labeled LD to determine peripheral metabolic decarboxylation of the drug. That is, breath samples were collected at 5 minutes intervals for 40 minutes, at 10 minutes intervals to 90 minutes and 120 minutes. Metabolism of ^13C-labeled LD in the absence of CD administration served as control. The results of these studies are summarized FIGS. 5-8. There is a dose response to the inhibition of peripheral DDC enzyme activity by the inhibitor CD.
The present studies examined the effect of CD preadministration on peripheral LD metabolism in human subjects. Briefly, normal human subjects ingested varying dosages (e.g., 25 mg-200 mg CD) either simultaneously, or up to 2 h prior to administration of ^13C-labeled LD. Breath samples were collected at specified intervals following administration of ^13C-labeled LD to determine peripheral metabolic decarboxylation of the ^13C-labeled LD. Metabolism of ^13C-labeled LD in the absence of CD administration served as control. The results of these studies are summarized below in Table 1 as well as FIGS. 9-14.
In Table 1, figures in parenthesis are percent inhibition of DDC by CD. The delta over baseline of ^13CO2 is designated as DOB. The percentage of LD dose recovered as ^13CO2 is designated as PDR. The peak breath concentration of ^13CO2 is designated as Cmax.
Breath samples are collected at 5 min time points up to 40 min and at 10 min intervals to 90 min and at 120 min after ingestion of ^13C-labeled LD. The breath samples are collected by having the subject momentarily holding their breath for 3 seconds prior to exhaling into a sample collection bag. The breath samples are analyzed on a UBiT IR-300 spectrophotometer (Meretek, Denver, Colo.) to determine the ^13CO2/^12CO2 ratio in expired breath, or sent to a reference lab. Optionally, varying doses (10-400 mg) of CD are orally administered to the subject (10 min-6 h) prior to administration of the ^13C-labeleld LD.

[2] = 50 mg oral CD; serum CD time course; good/rapid (N=4) and poor/slow (N=5) absorbers; cited from earlier work
[3] = target: T2, peripheral DDC (Homo sapiens, UniProt P20711); details: CD doses used in current clinical practice; cited from earlier work
T2 construct: host or cells: human subjects in vivo (cited study)
T2 sequence (P20711 1-480): T1 sequence (P20711 1-480)

[4] = subject Vlt 1, CD 25 mg 1 h prior to LD
[5] = subject Vlt 1, CD 25 mg simultaneous with LD
[6] = subject Vlt 1, CD 50 mg 1 h prior to LD
[7] = subject Vlt 1, CD 50 mg simultaneous with LD
[8] = subject Vlt 1, CD 100 mg 1 h prior to LD
[9] = subject Vlt 1, CD 100 mg simultaneous with LD
[10] = subject Vlt 2, CD 50 mg 1 h prior to LD
[11] = subject Vlt 2, CD 50 mg simultaneous with LD
[12] = subject Vlt 2, CD 100 mg 1 h prior to LD
[13] = subject Vlt 2, CD 100 mg simultaneous with LD
[14] = subject Vlt 2, CD 200 mg 1 h prior to LD
[15] = subject Vlt 2, CD 200 mg simultaneous with LD

## C[C@@](Cc1ccc(O)c(O)c1)(NN)C(=O)O [CD, (−)-L-a-hydrazino-a-methyl-b-(3,4-dihydroxybenzene) propanoic acid monohydrate]
[1]; 25 mg or 50 mg dose of CD and 100 mg of LD, simultaneous
  suppression of peripheral decarboxylation, simultaneous ingestion of CD/LD: did not completely suppress
[1]; Vlt 1 and Vlt 2
  suppression of DDC, CD administered 1 h prior to LD dose: maximal suppression
[1]; Vlt 1 and Vlt 2, 25 mg-200 mg CD 1 h prior to 100 mg 13C-labeled LD
  inhibition of peripheral DDC enzyme activity, dependence on CD dose: dose response
[1]; human subject
  level of peripheral metabolism of 13C-labeled LD, CD 1 h prior versus 2 h prior to LD: no significant difference
[1]; normal human subjects
  inhibition of peripheral metabolism of 13C-labeled LD, CD prior (1 h or 2 h) compared to simultaneous: greater
[1]; normal human subjects, all concentrations of CD tested
  peripheral metabolism of 13C-labeled LD versus control level: significantly inhibited
[1]; [4]
  DOB20: DOB value at 20 minutes after administration of 13C-labeled LD: 25.8
  PDR40: PDR value at 40 minutes after administration of 13C-labeled LD: 12.7%
  percent inhibition of DDC by CD (Cmax): 54%
  percent inhibition of DDC by CD (DOB20): 43%
  percent inhibition of DDC by CD (PDR40): 57%
[1]; [5]
  DOB20: DOB value at 20 minutes after administration of 13C-labeled LD: 35.6
  PDR40: PDR value at 40 minutes after administration of 13C-labeled LD: 18.7%
  percent inhibition of DDC by CD (Cmax): 20%
  percent inhibition of DDC by CD (DOB20): 22%
  percent inhibition of DDC by CD (PDR40): 37%
[1]; [6]
  DOB20: DOB value at 20 minutes after administration of 13C-labeled LD: 6.8
  PDR40: PDR value at 40 minutes after administration of 13C-labeled LD: 3.6%
  percent inhibition of DDC by CD (Cmax): 88%
  percent inhibition of DDC by CD (DOB20): 85%
  percent inhibition of DDC by CD (PDR40): 88%
[1]; [7]
  DOB20: DOB value at 20 minutes after administration of 13C-labeled LD: 25.5
  PDR40: PDR value at 40 minutes after administration of 13C-labeled LD: 11.7%
  percent inhibition of DDC by CD (Cmax): 57%
  percent inhibition of DDC by CD (PDR40): 61%
[1]; [8]
  DOB20: DOB value at 20 minutes after administration of 13C-labeled LD: 10.6
  PDR40: PDR value at 40 minutes after administration of 13C-labeled LD: 5.3%
  percent inhibition of DDC by CD (Cmax): 82%
  percent inhibition of DDC by CD (DOB20): 77%
  percent inhibition of DDC by CD (PDR40): 82%
[1]; [9]
  DOB20: DOB value at 20 minutes after administration of 13C-labeled LD: 16.5
  PDR40: PDR value at 40 minutes after administration of 13C-labeled LD: 9.1%
  percent inhibition of DDC by CD (Cmax): 70%
  percent inhibition of DDC by CD (DOB20): 64%
  percent inhibition of DDC by CD (PDR40): 69%
[1]; [10]
  DOB20: DOB value at 20 minutes after administration of 13C-labeled LD: 12.6
  PDR40: PDR value at 40 minutes after administration of 13C-labeled LD: 8.3%
  percent inhibition of DDC by CD (Cmax): 48%
  percent inhibition of DDC by CD (DOB20): 66%
  percent inhibition of DDC by CD (PDR40): 56%
[1]; [11]
  DOB20: DOB value at 20 minutes after administration of 13C-labeled LD: 15.4
  PDR40: PDR value at 40 minutes after administration of 13C-labeled LD: 11.0%
  percent inhibition of DDC by CD (Cmax): 32%
  percent inhibition of DDC by CD (DOB20): 58%
  percent inhibition of DDC by CD (PDR40): 41%
[1]; [12]
  DOB20: DOB value at 20 minutes after administration of 13C-labeled LD: 13.5
  PDR40: PDR value at 40 minutes after administration of 13C-labeled LD: 7.8%
  percent inhibition of DDC by CD (Cmax): 63%
  percent inhibition of DDC by CD (DOB20): 63%
  percent inhibition of DDC by CD (PDR40): 59%
[1]; [13]
  DOB20: DOB value at 20 minutes after administration of 13C-labeled LD: 26.7
  PDR40: PDR value at 40 minutes after administration of 13C-labeled LD: 14.1%
  percent inhibition of DDC by CD (Cmax): 27%
  percent inhibition of DDC by CD (DOB20): 27%
  percent inhibition of DDC by CD (PDR40): 25%
[1]; [14]
  DOB20: DOB value at 20 minutes after administration of 13C-labeled LD: 8.8
  PDR40: PDR value at 40 minutes after administration of 13C-labeled LD: 5.7%
  percent inhibition of DDC by CD (Cmax): 75%
  percent inhibition of DDC by CD (DOB20): 76%
  percent inhibition of DDC by CD (PDR40): 70%
[1]; [15]
  DOB20: DOB value at 20 minutes after administration of 13C-labeled LD: 20.5
  PDR40: PDR value at 40 minutes after administration of 13C-labeled LD: 12.0%
  percent inhibition of DDC by CD (Cmax): 44%
  percent inhibition of DDC by CD (PDR40): 36%
[2]
  absorption of CD among human subjects: variable
[3]
  saturation of peripheral DDC activity: not saturated
